In ChEMBL document CHEMBL5042473 (J Med Chem, 2022):

What was measured:
[1] = biological target: Mitogen-activated protein kinase 14 (Homo sapiens, UniProt Q16539); assay: Inhibition of human p38 MAPK alpha incubated for 1 hr by photometric method
[2] = Metabolic stability in human liver microsomes assessed as parent compound remaining incubated for 120 mins; format: ADME, Microsome; settings: read-out: Stability
[3] = biological target: CYP2C9 (Homo sapiens, UniProt P11712); assay: Inhibition of human recombinant CYP2C9 at 10 uM relative to control; format: ADME
[4] = biological target: hERG (Homo sapiens, UniProt Q12809); assay: Inhibition of hERG at 10 uM by fluorimetric analysis relative to control; format: toxicity
[5] = tested on: Blood; assay: Antiinflammatory activity against LPS-stimulated C57BL/6 mouse whole blood assessed as reduction in TNF-alpha at 1 nM incubated for 24 hrs by ELISA based method; format: functional; parameters: scale not given: the % may be the effect or the level left
[6] = biological target: T1, CYP1A2 (Homo sapiens, UniProt P05177); assay: Inhibition of human recombinant CYP1A2 at 10 uM relative to control; format: ADME
T1 sequence (P05177 whole entry): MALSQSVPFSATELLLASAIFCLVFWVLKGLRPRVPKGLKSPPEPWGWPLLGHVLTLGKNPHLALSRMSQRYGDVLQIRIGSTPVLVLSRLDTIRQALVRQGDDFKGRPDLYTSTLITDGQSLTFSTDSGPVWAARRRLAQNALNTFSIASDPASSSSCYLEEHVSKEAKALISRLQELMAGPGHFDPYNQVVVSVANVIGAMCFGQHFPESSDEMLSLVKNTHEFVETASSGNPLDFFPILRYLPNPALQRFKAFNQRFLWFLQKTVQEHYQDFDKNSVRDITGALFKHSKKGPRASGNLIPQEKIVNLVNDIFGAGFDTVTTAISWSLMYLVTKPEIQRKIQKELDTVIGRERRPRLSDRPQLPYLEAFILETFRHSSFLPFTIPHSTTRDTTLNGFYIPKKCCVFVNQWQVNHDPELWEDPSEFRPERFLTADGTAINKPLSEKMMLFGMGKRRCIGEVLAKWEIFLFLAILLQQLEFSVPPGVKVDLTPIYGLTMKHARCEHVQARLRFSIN

[7] = tested on: Splenocyte; assay: Cytotoxicity against Balb/c mouse splenocytes assessed as metabolic activity at 1 to 10 nM incubated for 24 hrs by MTT assay; format: toxicity, cell-based; settings: 0.01 µM, dose 1-10 nM
[8] = Drug uptake in RjOrl:Swiss (CD-1) mouse brain at 10 mg/kg, iv administered measured after 2 hrs by LC-MS/MS analysis; format: ADME, organism-based; settings: read-out: Ct
[9] = biological target: CYP2C19 (Homo sapiens, UniProt P33261); assay: Inhibition of human recombinant CYP2C19 at 10 uM relative to control; format: ADME
[10] = Cytotoxicity against Balb/c mouse splenocytes assessed as metabolic activity at 100 nM incubated for 24 hrs by MTT assay relative to LPS-stimulated splenocytes; format: toxicity, cell-based, Splenocyte; settings: read-out: Activity
[11] = Ratio of drug concentration in RjOrl:Swiss (CD-1) mouse brain to plasma at 10mg/kg, iv administered measured after 2 hrs by LC-MS/MS analysis; format: ADME, organism-based; settings: brain and plasma, read-out: BPR
[12] = biological target: CYP2D6 (Homo sapiens, UniProt P10635); assay: Inhibition of human recombinant CYP2D6 at 10 uM relative to control; format: ADME
[13] = biological target: CYP3A4 (Homo sapiens, UniProt P08684); assay: Inhibition of human recombinant CYP3A4 at 10 uM relative to control; format: ADME
[14] = tested on: Blood; assay: Antiinflammatory activity against LPS-stimulated C57BL/6 mouse whole blood assessed as reduction in IL-6 incubated for 24 hrs by ELISA based method; format: functional; parameters: scale not given: the % may be the effect or the level left; settings: dose 1-100 nM, at 1 to 100 nM
[15] = tested on: Blood; assay: Antiinflammatory activity against LPS-stimulated C57BL/6 mouse whole blood assessed as reduction in TNF-alpha at 10 nM incubated for 24 hrs by ELISA based method; format: functional; settings: C57BL/6, Blood
[16] = Drug uptake in mouse C57BL/6 brain at 0.4 mg/kg,iv measured upto 240 mins by LC-MS/MS analysis; format: ADME, organism-based; settings: in vivo, 4 h
[17] = Drug uptake in mouse C57BL/6 brain at 0.4 mg/kg,po measured upto 240 mins by LC-MS/MS analysis; format: ADME, organism-based; settings: in vivo, 4 h
[18] = Drug concentration in mouse C57BL/6 brain at 0.4 mg/kg,iv measured at 2 hrs by LC-MS/MS analysis; format: ADME, organism-based; settings: C57BL/6, mouse, read-out: Drug uptake
[19] = Drug concentration in mouse C57BL/6 brain at 0.4 mg/kg,po measured at 2 hrs by LC-MS/MS analysis; format: ADME, organism-based; settings: C57BL/6, mouse, read-out: Drug uptake
[20] = tested on: Splenocyte; assay: Antiinflammatory activity against LPS-stimulated Balb/c mouse splenocytes assessed as reduction in IL-6 at 100 nM incubated for 24 hrs by ELISA based method; format: functional; parameters: scale not given: the % may be the effect or the level left
[21] = Drug concentration in rat brain at 6 mg/kg, iv measured after 24 hrs by LC/MS/MS analysis; settings: in vivo
[22] = Drug concentration in rat plasma at 6 mg/kg, iv measured after 24 hrs by LC/MS/MS analysis
[23] = Drug concentration in rat plasma at 1.5 mg/kg, po measured after 1 hrs by LC/MS/MS analysis; format: ADME, organism-based
[24] = Drug concentration in rat brain at 4.5 mg/kg, po measured after 1 hrs by LC/MS/MS analysis; format: ADME, organism-based; settings: in vivo
[25] = Drug concentration in rat brain at 1.5 mg/kg, po measured after 1 hrs by LC/MS/MS analysis; format: ADME, organism-based; settings: in vivo
[26] = Ratio of drug concentration in rat brain to plasma; settings: brain and plasma
[27] = Drug concentration in rat plasma at 4.5 mg/kg, po measured after 1 hrs by LC/MS/MS analysis; format: ADME, organism-based

Chain of hERG (Q12809 whole entry): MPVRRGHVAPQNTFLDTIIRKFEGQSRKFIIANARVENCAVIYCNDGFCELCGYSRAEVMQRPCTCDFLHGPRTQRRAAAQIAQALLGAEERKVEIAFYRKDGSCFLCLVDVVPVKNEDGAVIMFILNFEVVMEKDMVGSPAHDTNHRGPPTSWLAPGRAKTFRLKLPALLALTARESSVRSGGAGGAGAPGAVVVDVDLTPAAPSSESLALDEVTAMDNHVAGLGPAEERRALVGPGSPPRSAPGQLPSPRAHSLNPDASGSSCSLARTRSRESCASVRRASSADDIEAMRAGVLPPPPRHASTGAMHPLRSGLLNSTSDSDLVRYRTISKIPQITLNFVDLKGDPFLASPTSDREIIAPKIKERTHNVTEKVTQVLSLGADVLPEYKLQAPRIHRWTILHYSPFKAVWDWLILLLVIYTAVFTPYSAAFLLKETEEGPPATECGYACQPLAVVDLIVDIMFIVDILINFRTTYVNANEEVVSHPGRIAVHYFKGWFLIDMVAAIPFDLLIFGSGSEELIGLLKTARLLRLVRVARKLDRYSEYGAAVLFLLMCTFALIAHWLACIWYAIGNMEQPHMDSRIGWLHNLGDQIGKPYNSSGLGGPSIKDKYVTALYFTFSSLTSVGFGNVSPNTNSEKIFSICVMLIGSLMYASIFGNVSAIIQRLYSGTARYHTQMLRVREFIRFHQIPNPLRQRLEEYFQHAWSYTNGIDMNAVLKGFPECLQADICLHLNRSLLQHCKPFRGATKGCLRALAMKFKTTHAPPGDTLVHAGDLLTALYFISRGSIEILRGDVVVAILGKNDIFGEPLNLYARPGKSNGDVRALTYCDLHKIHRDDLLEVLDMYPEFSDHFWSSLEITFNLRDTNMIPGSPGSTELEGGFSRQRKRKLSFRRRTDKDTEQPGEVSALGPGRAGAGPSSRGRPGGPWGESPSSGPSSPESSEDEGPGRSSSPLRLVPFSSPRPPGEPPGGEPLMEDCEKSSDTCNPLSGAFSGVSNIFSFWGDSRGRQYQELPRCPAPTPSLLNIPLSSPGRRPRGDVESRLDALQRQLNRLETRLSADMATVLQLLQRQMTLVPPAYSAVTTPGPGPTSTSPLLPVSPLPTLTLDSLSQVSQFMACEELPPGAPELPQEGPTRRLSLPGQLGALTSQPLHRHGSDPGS
Chain of CYP2D6 (P10635 whole entry): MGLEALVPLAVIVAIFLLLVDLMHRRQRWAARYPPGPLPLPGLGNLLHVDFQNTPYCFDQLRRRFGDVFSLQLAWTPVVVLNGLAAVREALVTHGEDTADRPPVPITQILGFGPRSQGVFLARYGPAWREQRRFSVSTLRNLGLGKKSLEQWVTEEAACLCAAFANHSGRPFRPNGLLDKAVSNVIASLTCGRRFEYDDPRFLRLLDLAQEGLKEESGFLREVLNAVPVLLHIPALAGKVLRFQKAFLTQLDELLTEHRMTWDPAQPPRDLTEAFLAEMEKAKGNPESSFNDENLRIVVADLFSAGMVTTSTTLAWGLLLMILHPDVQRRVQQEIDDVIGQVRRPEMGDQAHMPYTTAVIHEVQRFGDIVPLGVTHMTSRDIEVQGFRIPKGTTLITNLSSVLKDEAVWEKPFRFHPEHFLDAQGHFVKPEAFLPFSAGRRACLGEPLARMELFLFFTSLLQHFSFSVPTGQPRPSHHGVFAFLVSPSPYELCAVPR
Chain of Mitogen-activated protein kinase 14 (Q16539 whole entry): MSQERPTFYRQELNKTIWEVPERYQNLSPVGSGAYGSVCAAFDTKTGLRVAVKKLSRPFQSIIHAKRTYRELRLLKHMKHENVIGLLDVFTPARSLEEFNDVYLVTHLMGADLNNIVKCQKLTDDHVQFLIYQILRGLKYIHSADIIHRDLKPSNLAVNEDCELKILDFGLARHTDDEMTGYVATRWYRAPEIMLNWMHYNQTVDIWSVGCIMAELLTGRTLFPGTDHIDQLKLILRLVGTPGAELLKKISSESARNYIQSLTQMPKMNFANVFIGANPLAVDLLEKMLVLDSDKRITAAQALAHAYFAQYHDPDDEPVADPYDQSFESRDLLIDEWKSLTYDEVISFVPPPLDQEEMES
Chain of CYP3A4 (P08684 whole entry): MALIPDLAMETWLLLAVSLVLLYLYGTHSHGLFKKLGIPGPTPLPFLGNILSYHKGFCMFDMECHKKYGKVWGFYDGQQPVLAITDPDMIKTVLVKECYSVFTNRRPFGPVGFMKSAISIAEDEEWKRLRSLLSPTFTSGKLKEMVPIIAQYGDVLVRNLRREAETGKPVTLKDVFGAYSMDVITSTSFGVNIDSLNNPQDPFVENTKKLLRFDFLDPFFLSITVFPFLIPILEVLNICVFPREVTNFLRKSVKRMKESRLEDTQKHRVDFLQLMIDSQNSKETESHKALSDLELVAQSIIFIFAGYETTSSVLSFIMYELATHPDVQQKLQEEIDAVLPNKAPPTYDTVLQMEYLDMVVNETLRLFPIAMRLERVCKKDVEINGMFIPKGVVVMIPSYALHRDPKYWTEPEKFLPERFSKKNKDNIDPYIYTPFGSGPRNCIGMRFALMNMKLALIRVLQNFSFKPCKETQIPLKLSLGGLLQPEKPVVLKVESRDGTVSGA
Chain of CYP2C19 (P33261 whole entry): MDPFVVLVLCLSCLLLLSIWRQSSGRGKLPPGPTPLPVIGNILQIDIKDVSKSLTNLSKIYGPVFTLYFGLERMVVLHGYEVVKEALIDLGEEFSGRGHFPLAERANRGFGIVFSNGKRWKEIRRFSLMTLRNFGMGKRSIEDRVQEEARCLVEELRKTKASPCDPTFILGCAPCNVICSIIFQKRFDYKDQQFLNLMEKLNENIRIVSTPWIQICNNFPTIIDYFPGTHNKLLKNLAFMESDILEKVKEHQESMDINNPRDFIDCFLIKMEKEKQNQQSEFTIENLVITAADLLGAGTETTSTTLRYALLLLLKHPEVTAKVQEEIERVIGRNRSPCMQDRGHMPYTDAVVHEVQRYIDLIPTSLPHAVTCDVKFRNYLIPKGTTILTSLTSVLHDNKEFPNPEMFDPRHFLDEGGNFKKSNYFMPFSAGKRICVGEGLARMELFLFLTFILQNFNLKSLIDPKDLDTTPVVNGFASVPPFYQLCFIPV
Chain of CYP2C9 (P11712 whole entry): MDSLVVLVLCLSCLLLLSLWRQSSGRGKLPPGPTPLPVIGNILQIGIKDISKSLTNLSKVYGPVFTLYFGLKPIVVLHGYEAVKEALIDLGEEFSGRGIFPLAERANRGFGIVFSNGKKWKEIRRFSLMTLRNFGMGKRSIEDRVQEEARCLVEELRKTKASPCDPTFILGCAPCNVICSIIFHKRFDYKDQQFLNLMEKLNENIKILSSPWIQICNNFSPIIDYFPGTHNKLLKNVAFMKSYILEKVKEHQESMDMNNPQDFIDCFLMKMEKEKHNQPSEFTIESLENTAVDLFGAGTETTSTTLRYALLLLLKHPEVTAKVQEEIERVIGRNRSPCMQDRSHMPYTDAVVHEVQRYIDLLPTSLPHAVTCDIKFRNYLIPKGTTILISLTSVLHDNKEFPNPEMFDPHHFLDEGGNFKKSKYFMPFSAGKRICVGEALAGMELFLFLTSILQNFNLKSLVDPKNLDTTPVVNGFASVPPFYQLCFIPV

IC50 [1] [nM]	remaining at 2 h [2] [%]	Kp at 2 h [11]	Structure (SMILES)	Activity [7]	viability at 24 h, 0.1 µM [10] [%]	other results
5.4	12	–	COC(=O)[C@@H](N)CNC(=O)c1ccc2c(c1)C(=O)c1ccc(Nc3ccc(F)cc3F)cc1CC2	–	–	–
13	0	–	COC(=O)[C@H](CCSC)NC(=O)c1ccc2c(c1)C(=O)c1ccc(Nc3ccccc3N)cc1CC2	–	–	–
3.5	–	0.01	N[C@@H](CCCCNC(=O)c1ccc2c(c1)C(=O)c1ccc(Nc3ccc(F)cc3F)cc1CC2)C(=O)O	–	–	–
14	99	–	Nc1ccccc1Nc1ccc2c(c1)CCc1ccc(C(=O)NCCO)cc1C2=O	–	–	–
–	–	0.003	N[C@@H](CNC(=O)c1ccc2c(c1)C(=O)c1ccc(Nc3ccc(F)cc3F)cc1CC2)C(=O)O	–	–	–
5.9	47	0.16	O=C(NCCN1CC2(COC2)C1)c1ccc2c(c1)C(=O)c1ccc(Nc3ccc(F)cc3F)cc1CC2	–	–	inhibition at 10 µM [3]: 88.7%; inhibition at 10 µM [4]: 76.6%; inhibition at 10 µM [6]: 0%; concentration at 2 h [8]: 68 ng/g; inhibition at 10 µM [9]: 93.6%; inhibition at 10 µM [12]: 18.3%; inhibition at 10 µM [13]: 83.6%
2.5	–	0.51	O=C(NC1(c2ccccc2)CC1)c1ccc2c(c1)C(=O)c1ccc(Nc3ccc(F)cc3F)cc1CC2	–	–	concentration at 2 h [8]: 49 ng/g
3	93	–	COC(=O)[C@H](C)NC(=O)c1ccc2c(c1)C(=O)c1ccc(Nc3ccc(F)cc3F)cc1CC2	–	–	–
1.3	93	0.24	O=C(NCCN1CCNCC1)c1ccc2c(c1)C(=O)c1ccc(Nc3ccc(F)cc3F)cc1CC2	–	–	–
5.2	–	0.09	O=C(N[C@@H]1[C@@H](O)[C@H](O)[C@@H](CO)O[C@H]1O)c1ccc2c(c1)C(=O)c1ccc(Nc3ccc(F)cc3F)cc1CC2	–	–	concentration at 2 h [8]: 5.9 ng/g
9.3	93	0.13	O=C(O)CNC(=O)c1ccc2c(c1)C(=O)c1ccc(Nc3ccc(F)cc3F)cc1CC2	–	–	concentration at 2 h [8]: 8.2 ng/g
8.4	50	0.59	CN(C)CCNC(=O)c1ccc2c(c1)C(=O)c1ccc(Nc3ccccc3N)cc1CC2	–	–	–
5.7	3	–	CNC(=O)c1ccc2c(c1)C(=O)c1ccc(Nc3ccccc3N)cc1CC2	Non-Toxic	66	concentration at 2 h [18]: 20 nM; concentration at 2 h [19]: 20 nM
18	< 38	0.08	Nc1ccccc1Nc1ccc2c(c1)CCc1ccc(C(=O)NCCN3CCOCC3)cc1C2=O	–	–	–
11	–	–	CSCC[C@H](NC(=O)c1ccc2c(c1)C(=O)c1ccc(Nc3ccc(F)cc3F)cc1CC2)C(=O)O	–	–	Drug uptake [16]: Not Active; Drug uptake [17]: Not Active
8	93	–	O=C(O)CC[C@H](NC(=O)c1ccc2c(c1)C(=O)c1ccc(Nc3ccc(F)cc3F)cc1CC2)C(=O)O	–	–	–
36	–	0.31	O=C(N[C@@H](Cc1ccccc1)C(=O)O)c1ccc2c(c1)C(=O)c1ccc(Nc3ccc(F)cc3F)cc1CC2	–	–	concentration at 2 h [8]: 15 ng/g
1.7	–	0.17	O=C(NCCNCCO)c1ccc2c(c1)C(=O)c1ccc(Nc3ccc(F)cc3F)cc1CC2	–	–	–
–	–	–	CN1CCN(c2cc(-c3ccncc3)c(-c3ccc4ccccc4c3)nn2)CC1 [MW-150]	–	–	Ct [21]: 1030 nmol/kg; concentration at 24 h [22]: 390 ng/mL
–	–	–	O=c1ncn2nc(Sc3ccc(F)cc3F)ccc2c1-c1c(Cl)cccc1Cl [NEFLAMAPIMOD]	–	–	concentration at 1 h [23]: 33 ng/mL; Ct [24]: 359 nmol/kg; Ct [25]: 129 nmol/kg; Kp [26]: 1.7; concentration at 1 h [27]: 92 ng/mL

Structure (SMILES)	IC50 [1] [nM]	remaining at 2 h [2] [%]	Kp at 2 h [11]	Activity [7]	viability at 24 h, 0.1 µM [10] [%]	other results
O=C(O)CCNC(=O)c1ccc2c(c1)C(=O)c1ccc(Nc3ccc(F)cc3F)cc1CC2	5.5	97	1.25	Non-Toxic	66	inhibition at 10 µM [3]: 98.5%; inhibition at 10 µM [4]: 11.8%; Activity [5]: 5%; inhibition at 10 µM [6]: 33.6%; concentration at 2 h [8]: 103 ng/g; inhibition at 10 µM [9]: 100%; inhibition at 10 µM [12]: 3%; inhibition at 10 µM [13]: 54.8%
COC(=O)CCNC(=O)c1ccc2c(c1)C(=O)c1ccc(Nc3ccc(F)cc3F)cc1CC2	1.2	0	–	Non-Toxic	66	inhibition at 10 µM [3]: 99.4%; inhibition at 10 µM [4]: 59.9%; inhibition at 10 µM [6]: 27.3%; Activity [14]: 85%; inhibition at 10 µM [9]: 100%; inhibition at 0.01 µM [15]: 50%; inhibition at 10 µM [12]: 73.7%; inhibition at 10 µM [13]: 68%
O=C(NC(CO)(CO)CO)c1ccc2c(c1)C(=O)c1ccc(Nc3ccc(F)cc3F)cc1CC2	3	–	–	Non-Toxic	66	Activity [5]: 5%; Drug uptake [16]: Not Active; Drug uptake [17]: Not Active
O=C(O)CCCNC(=O)c1ccc2c(c1)C(=O)c1ccc(Nc3ccc(F)cc3F)cc1CC2	12	99	4.38	Non-Toxic	66	inhibition at 10 µM [3]: 66%; inhibition at 10 µM [4]: 14.4%; inhibition at 10 µM [6]: 16.2%; Activity [14]: 71%; concentration at 2 h [8]: 98.2 ng/g; inhibition at 10 µM [9]: 63.2%; inhibition at 0.01 µM [15]: 50%; inhibition at 10 µM [12]: 2%; inhibition at 10 µM [13]: 38.1%
NCCNC(=O)c1ccc2c(c1)C(=O)c1ccc(Nc3ccc(F)cc3F)cc1CC2	2.5	–	–	Non-Toxic	66	Activity [5]: 5%; Drug uptake [16]: Not Active; Drug uptake [17]: Not Active
COC(=O)CCNC(=O)c1ccc2c(c1)C(=O)c1ccc(Nc3ccccc3N)cc1CC2	29	–	–	Non-Toxic	66	Activity [14]: 81%; inhibition at 0.01 µM [15]: 50%
O=C(NCCOCCO)c1ccc2c(c1)C(=O)c1ccc(Nc3ccc(F)cc3F)cc1CC2	10	–	–	Non-Toxic	66	Activity [5]: 5%; Drug uptake [16]: Not Active; Drug uptake [17]: Not Active
COC(=O)[C@@H](N)CCNC(=O)c1ccc2c(c1)C(=O)c1ccc(Nc3ccc(F)cc3F)cc1CC2	2.3	6	–	Non-Toxic	66	Activity [5]: 5%; Drug uptake [16]: Not Active; Drug uptake [17]: Not Active
O=C(Nc1ccccc1)c1ccc2c(c1)C(=O)c1ccc(Nc3ccc(F)cc3F)cc1CC2	2.4	–	–	Non-Toxic	66	Activity [5]: 5%; Drug uptake [16]: Not Active; Activity [20]: 51%; Drug uptake [17]: Not Active
